{"source": "patent US6432883B1", "about": "“Methods of treating plants with glycolic acid” (Emerald BioAgriculture Corporation, priority 2000, dated 2002)", "key": {"Sclerotinia minor [1]": {"tested_on": "Sclerotinia minor", "test": "Lettuce pathogen stress: spray treatment, then stem inoculation, disease severity rating", "type": "in vivo", "details": "for Disease Severity Rating: lettuce, 1-9 rating scale", "experimental": "Waldmann's MTO dark green Grand Rapids leaf lettuce seed, lot#15529, was purchased from Johnny's Selected Seeds, Albion, Me., and grown 8 plants per 1 gallon pot, 1 pot per experimental unit and 3 experimental units per each of 4 replications. The plants were spray-treated first following “row closure” and again 14 days later with 8 ml per pot. The pathogen stress (Sclerotinia minor hyphal fragments and sclerotia, cultured on potato dextrose agar) was applied to the plant stems at the soil/stem interface at 14 days following the second treatment application.\nTreatments consisted of non-inoculated and inoculated groups of non-treated (NTC), water and 0.05% surfactant-blank (SB) controls and 15 and 60 ppm of glycolic acid.\nDisease assessment was made just prior to harvest by means of a 1-9 based rating scale. Extensive decomposition of the controls made accurate yield fresh and dry weights impossible. The results in Table 1 below show the data for each treatment and the rating scale definitions."}, "[2]": {"tested_on": "Erysiphe graminis/Ooidium", "test": "Wheat pathogen stress: disease index on leaves and heads", "type": "in vivo", "details": "for Disease Index Heads / Disease Index Leaves: wheat, (1-7 severity rating)(% incidence)/100", "experimental": "Kulm wheat seed, lot CR, was purchased from Albert Lea Seed House, Albert Lea, Minn. and grown 100 plants per 1 gallon pot, 3 pots per experimental unit and 1 experimental unit per each of 6 replications. The plants were spray-treated first at late-tillering to jointing and again at “in boot” to anthesis with 8 ml solution per pot. Aerial application of the pathogen stress (Erysiphe graminis/Ooidium conidia cultured on other Kulm wheat plants infected by incoming natural inoculum) was made to the plants at 14 days following the first treatment application, in addition to other naturally occurring inoculum.\nTreatments consisted of non-inoculated and inoculated groups of non-treated (NTC), water and 0.05% surfactant-blank (SB) controls and 5, 25, and 50 ppm of glycolic acid.\nDisease assessment was made 3 days prior to head harvesting using a 1-7 based severity scale and % incidence. A disease index [(1-7 based severity rating)(% incidence)/100] was created to better describe the compound effect. The results in Table 3 below show the data for each treatment and the rating scale definitions."}, "cabbage [3]": {"tested_on": "cabbage", "test": "Cabbage cold shock and heat treatment: fresh and dry weights", "type": "in vivo", "parameters": "Avg. Fresh Weights ± SD / Avg. Dry Weights ± SD: unit not given here", "excerpt": "Seeds of Heads Up cabbage were obtained from Harris Seeds, Rochester, N.Y. and grown in 7″×5¼″×2¼″ (17.78 cm×13.34×5.72 cm) Kord inserts (Park Seeds, Greenwood, S.C.) containing Bacto potting soil (Michigan Peat Company, Houston, Tex.). After plants had germinated, cabbage seedlings were thinned to six plants per insert. Inserts were kept in 12″×8¾″ (30.48 cm×22.23 cm) perma nest trays (Park Seed) with two inserts per tray. Each treatment consisted of three replicate trays containing a total of eighteen cabbage plants. After 12 days, some of the plant were sprayed with Glypure® at 25 ppm, 100 ppm, and 200 ppm. Treated plants were given a second application of Glypure® 7 days later. Untreated and treated plants were subjected to freeze and heat shock treatments 24 hours later. Cold shock was administered by exposing plants to −3° C. for 2 hours and 20 minutes. Heat treatment was provided by placing plants in an oven for 5 hours at 46.5° C. One week following the temperature treatments, the plants were harvested and the fresh and dry weights were determined."}, "cabbage [4]": {"tested_on": "cabbage", "test": "Cabbage drought stress: fresh and dry weights", "type": "in vivo", "details": "drought, water withheld 13 days, 5, 15, 50 ppm", "experimental": "Market Prize, F1 cabbage seed, lot 88955, as described in example 7, was treated identically as in example 7, except that drought stress was imposed by withholding water 7 days following the second spray and continuing to withhold water for 13 sequential days thereafter. Drought tolerance was assessed by measuring both the fresh and dried weights of the plants."}, "Sclerotinia minor [5]": {"tested_on": "Sclerotinia minor", "test": "Colony radius of plant pathogen on amended potato dextrose agar", "type": "cell-based", "details": "in PDA, 4 days, about 23° C., FIG. 5", "excerpt": "Sclerotinia minor culture SaM-18 was received from Krishna Subbarro, Ph.D., Univ. Calif., Davis. Potato dextrose agar (PDA) powder was purchased from Baltimore Biological Laboratory, Inc. (BBL), ammonium glycolate and glycolic acid from DuPont Specialty Chemicals and BreakThru® surfactant from Goldschmidt Chemical Corp.\nPDA was made, poured into sterile disposable petri dishes (100×15 mm) and inoculated with S. minor sclerotia to start new cultures on day zero. These cultures had reached an appropriate stage of maturation for use for use in the test after two weeks of growth. Multiple 1 liter containers of PDA were made and autoclaved on day 14. These PDA containers remained in the circulating water bath at 46° C. until the solutions were ready for addition (about 2 hrs.). The glycolic acid-containing compositions were added to the 46° C. PDA through a syringe-tip 0.2 μm-pore sterile filtration disc in a positive laminar-flow sterile hood and thoroughly mixed before returning to the 46° C. water bath to await pouring. Stacks of 22 dishes were poured for each medium type and allowed to solidify and cool overnight.\nOn day 15, soft, white to gray, sclerotial clumps of hyphae were picked from the culture dishes with heat sterilized forceps and one clump was transferred to the center of each test medium dish. Twenty dishes of each inoculated medium were stacked and replaced into the plastic sleeves they were originally packaged in for incubation at room temperature (about 23° C.). After 4 days of growth, some of the cultures had just reached the edges of the medium. The radius of each colony was measure in mm.\nTreatments were water controls, 0.05% surfactant controls, 5, 15, 50, 75 and 100 ppm of glycolic acid (F12) and 5, 15, 50, 100 and 750 ppm of ammonia-neutralized glycolic acid (F18; i.e., ammonium glycolate)."}, "[6]": {"details": "Cold Stress (−3° C., 2 hours 20 minutes), 25 ppm"}, "[7]": {"details": "Cold Stress (−3° C., 2 hours 20 minutes), 200 ppm"}, "[8]": {"details": "Heat Stress (46.5° C., 5 hours), 25 ppm"}, "[9]": {"details": "Heat Stress (46.5° C., 5 hours), 200 ppm"}}, "note": "Marks after values point to notes of the source that are not given here."}
{"smiles": "O=C(O)CO", "note": "[glycolic acid]", "values": [{"measurement": "Disease Severity Rating", "setting": "Sclerotinia minor [1]; 15 ppm spray", "result": "3.0*"}, {"measurement": "Disease Severity Rating", "setting": "Sclerotinia minor [1]; 60 ppm spray", "result": "3.5*"}, {"measurement": "disease severity versus control lettuce", "setting": "Sclerotinia minor [1]; all glycolic acid treatments (15 and 60 ppm), α=0.05", "result": "statistically significant (α=0.05) decrease"}, {"measurement": "disease severity observed in wheat heads versus control wheat", "setting": "[2]; 5 ppm and 25 ppm, α=0.05", "result": "statistically significant (α=0.05) decrease"}, {"measurement": "Disease Index Heads", "setting": "[2]; 5 ppm spray", "result": "2.5*"}, {"measurement": "Disease Index Leaves", "setting": "[2]; 5 ppm spray", "result": "7.6*"}, {"measurement": "Disease Index Heads", "setting": "[2]; 25 ppm spray", "result": "13.4*"}, {"measurement": "Disease Index Leaves", "setting": "[2]; 25 ppm spray", "result": "7.0*"}, {"measurement": "Disease Index Heads", "setting": "[2]; 50 ppm spray", "result": "18.6*"}, {"measurement": "Disease Index Leaves", "setting": "[2]; 50 ppm spray", "result": 36.9}, {"measurement": "disease severity in wheat leaves versus control wheat", "setting": "[2]; all glycolic acid treated wheat, α=0.05", "result": "statistically significant (α=0.05) decrease"}, {"measurement": "reduction in fresh and dry weights caused by the adverse temperatures, versus untreated plants", "setting": "cabbage [3]; 200 ppm", "result": "statistically significantly lower"}, {"measurement": "Avg. Dry Weights ± SD", "setting": "cabbage [3]; [6]", "result": "3.1 ± 0.1"}, {"measurement": "Avg. Fresh Weights ± SD", "setting": "cabbage [3]; [6]", "result": "28.6 ± 2.7"}, {"measurement": "Avg. Dry Weights ± SD", "setting": "cabbage [3]; [7]", "result": "3.2 ± 0.2"}, {"measurement": "Avg. Fresh Weights ± SD", "setting": "cabbage [3]; [7]", "result": "31.4 ± 1.3"}, {"measurement": "Avg. Dry Weights ± SD", "setting": "cabbage [3]; [8]", "result": "2.5 ± 0.3"}, {"measurement": "Avg. Fresh Weights ± SD", "setting": "cabbage [3]; [8]", "result": "10.2 ± 2.6"}, {"measurement": "Avg. Dry Weights ± SD", "setting": "cabbage [3]; [9]", "result": "3.5 ± 0.1"}, {"measurement": "Avg. Fresh Weights ± SD", "setting": "cabbage [3]; [9]", "result": "15.2 ± 0.6"}, {"measurement": "fresh weight of the cabbage compared to controls", "setting": "cabbage [4]; FIG. 3", "result": "statistically significantly increased"}, {"measurement": "dry weight of the cabbage compared to controls", "setting": "cabbage [4]; FIG. 4", "result": "statistically significantly increased"}, {"measurement": "growth of Sclerotinia minor (colony radius) compared to controls", "setting": "Sclerotinia minor [5]", "result": "statistically significantly increased the growth"}]}
